Experimental data published in US7282503B2 (priority 2002, dated 2007).
Where two headings read alike, the source gives them in different places.

Assays:
Phytophthora infestans = format: in vivo; conditions: individual active compound, control 90% infection
Plasmopara viticola = assay: Activity against peronospora of vines caused by Plasmopara viticola (protective spray, potted vines); format: in vivo, Plasmopara viticola on vines cultivar Müller-Thurgau; conditions: individual active compound, control 88% infection
Method: The active compounds, separately or together, were prepared as a stock solution with 0.25% by weight of active compound in acetone or DMSO. 1% by weight of the emulsifier Uniperol® EL (wetting agent having emulsifying and dispersing action based on ethoxylated alkylphenols) was added to this solution, and the solution was diluted with water to the desired concentration.
Evaluation is carried out by determining the infected leaf areas as a percentage. These percentages are converted into efficacies. The efficacy (W) is calculated as follows using Abbot's formula: W=(1−α/β)·100 α corresponds to the fungal infection of the treated plants in % and β corresponds to the fungal infection of the untreated (control) plants in % An efficacy of 0 means that the infection level of the treated plants corresponds to that of the untreated control plants; an efficacy of 100 means that the treated plants were not infected. The expected efficacies of the mixtures of the active compounds are determined using Colby's formula [R. S. Colby, Weeds 15, 20-22 (1967)] and compared with the observed efficacies. Colby's formula: E=x+y−x·y/100 […]
E expected efficacy, expressed as a % of the untreated control, when using the mixture of the active compounds A and B at the concentrations a and b x efficacy, expressed as a % of the untreated control, when using active compound A at a concentration a y efficacy, expressed as a % of the untreated control, when using active compound B at a concentration b Leaves of potted vines of the cultivar “Müller-Thurgau” were sprayed to runoff point with an aqueous suspension having the concentration of active compounds stated below. The next day, the undersides of the leaves were inoculated with an aqueous zoospore suspension of Plasmopara viticola. The vines were then initially placed in a water-vapor-saturated chamber at 24° C. for 48 hours and then in a greenhouse at 20-30° C. for 5 days. After this period of time, the plants were again placed in a moist chamber for 16 hours to promote sporangiophore eruption. The extent to which the infection had developed on the undersides of the leaves was then determined visually.

Row | SMILES | Efficacy in % of the untreated control (Phytophthora infestans; 0.75 ppm in spray liquid) [%] | Efficacy in % of the untreated control (Phytophthora infestans; 1.5 ppm in spray liquid) [%] | Efficacy in % of the untreated control (Phytophthora infestans; 3 ppm in spray liquid) [%] | Efficacy in % of the untreated control (Phytophthora infestans; 6 ppm in spray liquid) [%] | Efficacy in % of the untreated control (Plasmopara viticola; 3 ppm in spray liquor) [%] | Efficacy in % of the untreated control (Plasmopara viticola; 6 ppm in spray liquor) [%] | Efficacy in % of the untreated control (Phytophthora infestans; 3.75 ppm in spray liquid) [%] | Efficacy in % of the untreated control (Phytophthora infestans; 7.5 ppm in spray liquid) [%] | Efficacy in % of the untreated control (Phytophthora infestans; 15 ppm in spray liquid) [%] | Efficacy in % of the untreated control (Phytophthora infestans; 30 ppm in spray liquid) [%] | Efficacy in % of the untreated control (Plasmopara viticola; 3.75 ppm in spray liquor) [%] | Efficacy in % of the untreated control (Plasmopara viticola; 7.5 ppm in spray liquor) [%]
1 | Cc1ccc(-c2c(Cl)nc(C#N)n2S(=O)(=O)N(C)C)cc1 [IIa, cyazofamid] | 56 | 67 | 78 | 89 | 72 | 83 | – | – | – | – | – | –
2 | CC1CCN(c2c(-c3c(F)cc(F)cc3F)c(Cl)nc3ncnn23)CC1 [I, 5-chloro-7-(4-methyl-pipiridin-1-yl)-6-(2,4,6-trifluorophenyl)-[1,2,4]triazolo[1,5-a]pyrimidine] | – | – | – | – | – | – | 0 | 0 | 0 | 33 | 9 | 32
